Test results: patent US20050245472A1, “Engineered rnai adenovirus silencing expression (erase) of dna reair proteins” (The Johns Hopkins University, priority 2003, published 2005)

System: DU 145 cells
Experiment: Clonogenic survival after ionizing radiation
Assay type: cell-based, human
Settings: DU 145, 10 μM, one hour before and 24 hours after irradiation, vs DMSO

Row | Compound | DRF, ionizing radiation (DRF at 80% clonogenic cell killing) | DRF, ionizing radiation
1 | O=c1cc(N2CCOCC2)oc2c(-c3ccccc3)cccc12 [LY294002] | 1.1 | 
2 | COC[C@H]1OC(=O)c2coc3c2[C@@]1(C)C1=C(C3=O)[C@@H]2CCC(=O)[C@@]2(C)C[C@H]1OC(C)=O [Wortmannin] |  | 1.4
